Results on one molecule are retold here after patent publication US6380244B2, “Nutritional and therapeutic uses of 3-hydroxyalkanoate oligomers” (Metabolix, Inc., priority 1998, dated 2002).

Structures are written as SMILES.

Data set [1] is described as follows: Single oral bolus of triolide in a fasted dog, blood ketone bodies and glucose (Example 2). The data set is classed as in vivo, mongrel dog. The method, then:
A mongrel dog (21 kg) was fasted overnight and given an oral bolus of triolide (R,R,R)-4,8,12-trimethyl-1,5,9-trioxadodeca-2,6,10-trione, 10 g) in gelatin. This amount of triolide is equivalent to 5% of the daily caloric requirement. Blood was sampled at 0, 15, 30, 45, and 60 minutes and every half hour thereafter for a total of six hours.
The blood samples were analyzed for glucose via enzymatic assay, and for acetoacetate and 3-hydroxybutyrate via GC-mass spectrometry (GC-MS) assay. As shown by FIG. 1, within 90 minutes, the blood concentrations of 3-hydroxybutyrate and acetoacetate reached 0.3 and 0.05 mM, and the total ketone bodies in the blood were 0.36 mM. After the fourth hour, the total ketone body concentration remained elevated at 0.24 mM. Glucose concentration in the blood dropped from 6.5 mM to 5 mM during the experiment.

Data set [2] can be described thus: Repeated feeding of meat plus triolide to a fasted dog, blood ketone bodies, glucose, tolerability (Example 3). The data set is classed as in vivo, mongrel dog. Here is the method: A mongrel dog (25.5 kg) was fasted overnight and fed a mixture of meat (111 g) and triolide ((R,R,R)-4,8,12-trimethyl-1,5,9-trioxadodeca-2,6,10-trione, 23.5 g). This amount of triolide is equivalent to 10% of the daily caloric requirement. Identical amounts of meat and triolide were given at 0, 120, 360 and 540 minutes. Blood was sampled at regular intervals for 12 hours.
The blood samples were analyzed for acetoacetate and 3-hydroxybutyrate. Within 30 minutes, the concentrations of 3-hydroxybutyrate and acetoacetate reached 0.85 and 0.15 mM, respectively. The total ketone bodies in the blood were 1.0 mM. After the third feeding of triolide, total ketone body concentration remained elevated and steady at about 0.6 mM. Glucose concentration in the blood remained within the normal range of 3.1 to 5.9 mM. […] By the next morning, the ketone body concentration in the blood had returned to the normal value of 0.02 mM.

[3] abbreviates: four feedings of 23.5 g triolide, throughout the experiment.
[4] abbreviates: meat + triolide 23.5 g, within 30 minutes.

In the case of `C[C@@H]1CC(=O)O[C@H](C)CC(=O)O[C@H](C)CC(=O)O1` [triolide, (R,R,R)-4,8,12-Trimethyl-1,5,9-Trioxadodeca-2,6,10-Trione], the “blood concentration of 3-hydroxybutyrate” value is 300 µM in data set [1] (oral bolus 10 g triolide in gelatin (5% of daily caloric requirement), within 90 minutes, GC-MS) and 850 µM in data set [2] (meat 111 g + triolide 23.5 g (10% of daily caloric requirement) at 0, 120, 360, 540 min, within 30 minutes). For the same molecule, the “total ketone bodies in the blood” value was 0.36 mM in data set [1] (oral bolus 10 g triolide in gelatin, within 90 minutes) and 1.0 mM in data set [2] (setting [4]). In addition, the “blood concentration of acetoacetate” value in data set [1] (oral bolus 10 g triolide in gelatin, within 90 minutes, GC-MS) came to 50 µM; in data set [2] (setting [4]) it was 150 µM. The “total ketone body concentration” value in data set [1] (oral bolus 10 g triolide, after the fourth hour, remained elevated) is 0.24 mM; in data set [2] (after the third feeding of triolide, elevated and steady), “about 0.6 mM”. In addition, the “ketone body concentration in the blood” value in data set [2] (by the next morning, returned to the normal value) came out at 0.02 mM. For the same molecule, the “other clinical chemistry profiles” value in data set [2] (setting [3]) is “remained normal”. In data set [2] (setting [3]), the “signs of distress, unusual behavior, abnormal bodily functions (diarrhea, nausea, vomiting, frequent urination)” value was “no signs of distress”.
